# Assay results: patent publication US20200288710A1, “SUBSTITUTED SULPHONAMIDES FOR CONTROLLING ANIMAL PESTS” (BAYER CROPSCIENCE AKTIENGESELLSCHAFT, priority 2016, published 2020)
# Columns and labels:
# Format in all cases: in vivo
# Meloidogyne incognita = Meloidogyne incognita test; conditions: 336 h, lettuce, after 14 days, read-out: nematicidal efficacy (formation of galls)
# How it was run: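 Active compound in acetone, diluted with water, added to sand-filled vessels with M. incognita eggs/larvae and lettuce seeds. After 14 days, efficacy scored by root gall formation: 100% = no galls, 0% = galls equal to untreated control.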
# Myzus persicae [1] = assay: Myzus persicae spray test (Chinese cabbage leaf discs); conditions: foliar, 120 h, after 5-6 days, read-out: efficacy
# How it was run: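 Chinese cabbage leaf discs infested with all stages of green peach aphid were sprayed with compound formulated in acetone/DMF and emulsifier-containing water. Efficacy in % was scored after 5-6 days, with 100% meaning all aphids killed and 0% none killed.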
# Myzus persicae [2] = assay: Myzus persicae oral test; conditions: 120 h, 20 ppm, oral uptake, after 5 days, read-out: efficacy
# How it was run: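 Compound dissolved in acetone, diluted in water, then mixed 50:150 μl with IPL41 insect medium (33%+15% sugar). Mixed-population green peach aphids feed through a parafilm seal on the solution; mortality scored as % efficacy after 5 days (100% = all killed).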
Compound,pest or weed control at 20 ppm (Meloidogyne incognita),pest or weed control at 500 g/ha (Myzus persicae [1]),pest or weed control at 20 ppm (Myzus persicae [2]),pest or weed control at 100 g/ha (Myzus persicae [1]; 100 g/ha)
Cc1cc(C(=O)NS(=O)(=O)c2ccccc2Cl)nn1-c1ncccc1Cl [Example 273],90%,100%,100%,–
COc1cc(C(=O)NS(=O)(=O)c2ccccc2Cl)nn1-c1ccccc1Cl [Example 275],100%,90%,100%,–
COc1cc(C(=O)NS(=O)(=O)c2ccccc2Br)nn1-c1ccccc1Cl [Example 277],90%,100%,100%,–
CCc1ccccc1S(=O)(=O)NC(=O)c1cc(OC)n(-c2ccccc2Cl)n1 [Example 281],100%,90%,100%,–
Cc1cc(C(=O)NS(=O)(=O)c2ccccc2Br)nn1-c1ncccc1Cl [Example 283],90%,100%,100%,–
CCc1ccccc1S(=O)(=O)NC(=O)c1cc(C)n(-c2ncccc2Cl)n1 [Example 284],90%,100%,100%,–
Cc1cc(C(=O)NS(=O)(=O)c2ccccc2Cl)nn1-c1ncccc1Br [Example 295],90%,100%,100%,–
Cc1cc(C(=O)NS(=O)(=O)c2ccccc2Br)nn1-c1ncccc1Br [Example 296],90%,90%,90%,–
Cn1cc(C(=O)NS(=O)(=O)c2cccc3c2OC(F)(F)C(F)(F)O3)nc1-c1c(F)cccc1F [Example 312],90%,90%,100%,–
Cn1cc(C(=O)NS(=O)(=O)c2cccc3c2OCC3)nc1-c1c(F)cccc1F [Example 317],90%,90%,100%,–
Cn1cc(C(=O)NS(=O)(=O)c2cccc(F)c2F)nc1-c1c(F)cccc1F [Example 320],90%,100%,100%,–
Cn1cc(C(=O)NS(=O)(=O)c2cccc3ccn(C)c23)nc1-c1c(F)cccc1F [Example 323],90%,100%,100%,–
Cn1cc(C(=O)NS(=O)(=O)c2cc(Cl)cnc2Cl)nc1-c1c(F)cccc1F [Example 343],90%,100%,90%,–
Cc1csc(S(=O)(=O)NC(=O)c2cn(C)c(-c3c(F)cccc3F)n2)c1 [Example 350],90%,100%,90%,–
Cn1cc(C(=O)NS(=O)(=O)c2ccc(Cl)s2)nc1-c1c(F)cccc1F [Example 352],100%,90%,100%,–
Cn1cc(C(=O)NS(=O)(=O)c2sccc2Br)nc1-c1c(F)cccc1F [Example 354],90%,100%,100%,–
Cc1noc(C)c1S(=O)(=O)NC(=O)c1cn(C)c(-c2c(F)cccc2F)n1 [Example 358],90%,100%,100%,–
Cn1cc(C(=O)NS(=O)(=O)c2c(F)cccc2C(F)(F)F)nc1-c1c(F)cccc1F [Example 371],90%,90%,100%,–
Cn1cc(C(=O)NS(=O)(=O)c2c(Cl)cccc2C(F)(F)F)nc1-c1c(F)cccc1F [Example 372],90%,100%,100%,–
COc1cccc(OC)c1S(=O)(=O)NC(=O)c1cn(C)c(-c2c(F)cccc2F)n1 [Example 378],90%,–,100%,90%
COc1ccc(Cl)cc1S(=O)(=O)NC(=O)c1cn(C)c(-c2c(F)cccc2F)n1 [Example 393],90%,100%,100%,–
CCc1ccc(C)c(S(=O)(=O)NC(=O)c2cn(C)c(-c3c(F)cccc3F)n2)c1 [Example 395],90%,100%,90%,–
CCCc1ccccc1S(=O)(=O)NC(=O)c1cn(C)c(-c2c(F)cccc2F)n1 [Example 403],90%,100%,100%,–
